Patent publication US8759537B2, “3H-imidazo [4, 5-C] pyridine-6-carboxamides as anti-inflammatory agents” (Boehringer Ingelheim International GmbH, priority 2010, dated 2014)

What was measured:
[1] = target: T1, mPGES-1 (Homo sapiens (Human), UniProt O14684); assay: mPGES-1 enzyme assay (HTRF detection of PGE2); format: biochemical; conditions: recombinant human mPGES-1 microsomes, PGH2 2 μM; read-out: mPGES-1 inhibitory effect in the enzyme assay, IC50
Experimental: Microsomes from Rosetta E. coli bacteria expressing recombinant human mPGES-1 can be derived as described below:
Inoculate 5 ml LB with Ampicilin (50 μg/ml) and Chloramphenicol (34 μg/ml) with bacteria from freeze culture. Incubate 8 h at 37° C. with 200 rpm. Thereafter, inoculate 500-1000 ml LB containing Amp and Chloro with the 5 ml on culture and grow to OD640 of 0.8-1.0. Chill the culture to +4° C. before induction. Induce the culture with IPTG at a final concentration of 400 μM. Express the protein at room temp 18-23° C. with 200 rpm shaking over night.
The following steps can be performed on the following day: • 1. Spin down the cells in 250 ml centrifuge flasks for 15 min at 7000 rpm (Beckmann Coulte Avanti J-E centrifuge) • 2. Dissolve the pellet from 250 ml culture in 12.5 ml homogenization buffer • 3. (15 mM Tris-HCL pH8, 1 mM EDTA pH8, […], 2.5 mM GSH, 1 Tablet Protease inhibitor per 50 ml buffer) • 4. […] Add 2.5 ml MgCl2 (100 mM) and DNase 12.5 μl (0.8 mg/ml) and incubate on ice for 30 min • 6. Spin down the bacteria debris and save the supernatant, 7000 rpm for 15 min • 7. Isolate the protein containing membranes in the supernatant by ultracentrifugation 120000×g for 2 hour at 4° C. (Sorvall T880 rotor). • 8. Discard the supernatant and dissolve the pellet in 20 mM Potassium phosphate buffer pH7.4 (KH2PO4 and K2HPO4) buffer by sonication (5×10 s, 30% of a 50 W sonifier) and aliquot the enzyme and store aliquots at −80° C.
Before each experiment is performed an aliquot of the enzyme is thawed and it can then be dissolved in 0.1 M Potassium phosphate buffer pH7.4 (KH2PO4 and K2HPO4) buffer containing 2.5 mM GSH.
The aim of this assay is to determine the affinity of a test compound for the mPGES-1 enzyme.
47 μl of recombinant human mPGES-1 (˜0.5 μg protein/well) containing microsomal suspension in a buffer containing GSH, (2.5 mmol/L L-Glutathione reduced, dissolved in 0.1 mol/L Phosphat Buffer pH 7.4) is dispensed in a 384-well plate and thereafter 1 μl of the test compound(s) is/are added and incubated for 25 minutes at room temperature. The enzyme reaction is started by the addition of 2 ul PGH2 (final conc. 2 μM) dissolved in water-free Diglyme. After 60 seconds the reaction is terminated by addition of a stop solution containing FeCl2 (10 μL 0.074 mol/l FeCl2). The samples are diluted between 1:25 in PBS (Phosphate Buffered Saline). 10 μl of the diluted samples are transferred to 384-well low volume plate. In order to quantify the amount of PGE2 that has been formed, a homogenous time resolved fluorescent (HTRF) detecting of PGE2 has been performed using a commercially available kit from Cisbio according to the manufactures recommendation. […] Briefly, the diluted samples are mixed with 5 μl PGE2-d2 conjungate and 5 μl anti-PGE2 cryptate conjungate. After an incubation period of the plates over night, the fluorescence is measured by the use of an appropriate microplate reader.
The quantification plate contains also wells with different concentrations of PGE2 as calibration curve for the calculation of the PGE2 concentrations from the HTRF ratio values.
From all mPGES enzyme assay the background is subtracted and the IC50 is calculated over a nonlinear regression with conventional software.

[2] = target: T1, mPGES-1; assay: A549 cell-based assay (PGE2 formation, IL-1β stimulated, 50% human serum); conditions: A549 cells, IL-1β 5 ng/ml, read-out: mPGES-1 inhibitory effect in the cell assay, IC50
Experimental: Although the enzymatic assay is a high throughput assay the disadvantage is that it uses a recombinant protein which is not in its natural environment. Accordingly a cellular assay was established in which a cell line of human origin (A549) expressing the mPGES-1 protein was used. In addition in order to mimic the situation in humans in which compounds can be bound to plasma proteins 50% human serum is added in the assay.
Cells were detached using Trypsin-EDTA. A549 cells were seeded in a 384-well collagene plate at a density of 7000 cells/well (50 μl) in F-12 medium containing 1% Penicillin-Streptomycin and 50% human serum. The cells were allowed to attach for 3-4 h. […] The total volume is 100 μl.
Concentrations of PGE2 in the cell free medium (10 μl) were measured using a commercially available HTRF kit from Cisbio (as described above). The PGE2 formation in the absence of test compound was taken as 100%.
IC50 values were derived from at 6-8 point titrations using conventional software.

T1 sequence (O14684 whole entry): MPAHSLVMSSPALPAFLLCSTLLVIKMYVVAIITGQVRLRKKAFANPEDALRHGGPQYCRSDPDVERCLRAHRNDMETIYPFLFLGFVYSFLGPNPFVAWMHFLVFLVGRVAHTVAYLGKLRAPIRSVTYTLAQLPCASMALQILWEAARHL

| IC50 [1] [nM] | IC50 [2] [nM] | Structure (SMILES) |
| --- | --- | --- |
| 3 | 11 | Cn1c(Nc2c(Cl)ccc(CNC(=O)OC(C)(C)C)c2Cl)nc2cc(C(=O)Nc3ccc(F)c(Cl)c3)c(OCC(F)F)cc21 [Example 15] |
| 1 | 4 | Cn1c(Nc2c(Cl)ccc(CNC(=O)C(C)(C)C)c2Cl)nc2cc(C(=O)Nc3cccc(Cl)c3)c(F)cc21 [Example 18] |
| 1 | 2 | Cn1c(Nc2c(Cl)ccc(CNC(=O)C(C)(C)C)c2Cl)nc2cc(C(=O)Nc3ccc(Cl)c(F)c3)c(F)cc21 [Example 19] |
| 2 | 11 | Cn1c(Nc2c(F)ccc(CNC(=O)C(C)(C)C)c2F)nc2cc(C(=O)Nc3ccc(F)c(Cl)c3)c(OCC(F)F)cc21 [Example 26] |
| 4 | < 1 | Cn1c(Nc2c(Cl)ccc(CNC(=O)C(C)(C)C)c2Cl)nc2cc(C(=O)Nc3ccc(F)c(Cl)c3)c(OCC(F)F)cc21 [Example 29] |
| 4 | < 1 | Cn1c(Nc2c(Cl)ccc(CNC(=O)C(C)(C)C)c2Cl)nc2cc(C(=O)Nc3cccc(Cl)c3)c(OCC(F)F)cc21 [Example 30] |
| 3 | 1 | Cn1c(Nc2c(Cl)ccc(CNC(=O)C(C)(C)C)c2Cl)nc2cc(C(=O)Nc3cccc(F)c3)c(OCC(F)F)cc21 [Example 31] |
| 3 | 1 | Cn1c(Nc2c(Cl)ccc(CNC(=O)C(C)(C)C)c2Cl)nc2cc(C(=O)NC3CCC3)c(OCC(F)F)cc21 [Example 32] |
| 4 | 1 | Cn1c(Nc2c(Cl)ccc(CNC(=O)C(C)(C)C)c2Cl)nc2cc(C(=O)Nc3nc4ccc(Cl)cc4s3)c(OCC(F)F)cc21 [Example 34] |
| 4 | < 1 | Cn1c(Nc2c(Cl)ccc(CNC(=O)C(C)(C)C)c2Cl)nc2cc(C(=O)NCc3ccccc3C(F)(F)F)c(OCC(F)F)cc21 [Example 35] |
| 4 | < 1 | Cn1c(Nc2c(Cl)ccc(CNC(=O)C(C)(C)C)c2Cl)nc2cc(C(=O)Nc3cc(F)cc(Cl)c3)c(OCC(F)F)cc21 [Example 40] |
| 4 | 1 | Cn1c(Nc2c(Cl)ccc(CNC(=O)C(C)(C)C)c2Cl)nc2cc(C(=O)Nc3ncc(Cl)s3)c(OCC(F)F)cc21 [Example 41] |
| 4 | 4 | Cn1c(Nc2c(Cl)ccc(CNC(=O)C(C)(C)C)c2Cl)nc2cc(C(=O)NCC(F)F)c(OCC(F)F)cc21 [Example 43] |
| 3 | 1 | Cn1c(Nc2c(Cl)ccc(CNC(=O)C(C)(C)C)c2Cl)nc2cc(C(=O)NCC3CC3(Cl)Cl)c(OCC(F)F)cc21 (stereo not drawn) [Example 44] |
| 4 | < 1 | Cn1c(Nc2c(Cl)ccc(CNC(=O)C(C)(C)C)c2Cl)nc2cc(C(=O)Nc3ccc(Cl)c(F)c3)c(OCC(F)F)cc21 [Example 45] |
| 3 | < 1 | Cn1c(Nc2c(Cl)ccc(CNC(=O)C(C)(C)C)c2Cl)nc2cc(C(=O)Nc3ccc(C(F)(F)F)nc3)c(OCC(F)F)cc21 [Example 47] |
| 4 | 1 | COC(=O)c1ccc(NC(=O)c2cc3nc(Nc4c(Cl)ccc(CNC(=O)C(C)(C)C)c4Cl)n(C)c3cc2OCC(F)F)s1 [Example 50] |
| 4 | 1 | Cn1c(Nc2c(Cl)ccc(CNC(=O)C(C)(C)C)c2Cl)nc2cc(C(=O)NCC3CC3)c(OCC(F)F)cc21 [Example 53] |

The remaining lines, values behind:

| Structure (SMILES) | IC50 [1] [nM] | IC50 [2] [nM] |
| --- | --- | --- |
| Cc1ccc(CNC(=O)C(C)(C)C)c(C)c1Nc1nc2cc(C(=O)N[C@H]3CC[C@H](C(F)(F)F)CC3)c(OCC(F)F)cc2n1C [Example 14, N-(trans-4-Trifluoromethyl-cyclohex-1-yl)-2-{2,6-dimethyl-3-[(2,2-dimethyl-propionylamino)-methyl]-phenylamino}-6-(2,2-difluoroethoxy)-1-methyl-1H-benzimidazole-5-carboxylic acid amide] | 1 | 5 |
| Cn1c(Nc2c(Cl)ccc(CNC(=O)OC(C)(C)C)c2Cl)nc2cc(C(=O)NCC(F)(F)F)c(OCC(F)F)cc21 [Example 16] | 5 | 106 |
| Cn1c(Nc2c(Cl)ccc(CNC(=O)C(C)(C)C)c2Cl)nc2cc(C(=O)NC3CC(F)(F)C3)c(F)cc21 [Example 20] | 3 | 14 |
| Cn1c(Nc2c(Cl)ccc(CNC(=O)C(C)(C)C)c2Cl)nc2cc(C(=O)NCC(F)(F)F)c(F)cc21 [Example 21] | 3 | 36 |
| Cn1c(Nc2c(Cl)ccc(CNC(=O)C(C)(C)C)c2Cl)nc2cc(C(=O)Nc3cc(Cl)ccc3Cl)c(F)cc21 [Example 22] | 2 | 1 |
| Cn1c(Nc2c(Cl)ccc(CNC(=O)C(C)(C)C)c2Cl)nc2cc(C(=O)Nc3cc(F)cc(Cl)c3)c(F)cc21 [Example 23] | 1 | < 1 |
| Cn1c(Nc2c(F)ccc(CNC(=O)C(C)(C)C)c2F)nc2cc(C(=O)N[C@H]3CC[C@H](C(F)(F)F)CC3)c(OCC(F)F)cc21 [Example 25] | 2 | 9 |
| Cn1c(Nc2c(F)ccc(CNC(=O)C(C)(C)C)c2F)nc2cc(C(=O)NCC(F)(F)F)c(OCC(F)F)cc21 [Example 27] | 4 | 124 |
| Cn1c(Nc2c(Cl)ccc(CNC(=O)C(C)(C)C)c2Cl)nc2cc(C(=O)NCc3ccc(F)cc3C(F)(F)F)c(OCC(F)F)cc21 [Example 36] | 4 | < 1 |
| Cn1c(Nc2c(Cl)ccc(CNC(=O)C(C)(C)C)c2Cl)nc2cc(C(=O)NC[C@@H]3CCCO3)c(OCC(F)F)cc21 [Example 37] | 5 | 9 |
| Cn1c(Nc2c(Cl)ccc(CNC(=O)C(C)(C)C)c2Cl)nc2cc(C(=O)NCC(F)(F)C(F)(F)F)c(OCC(F)F)cc21 [Example 38] | 3 | < 1 |
| CC(NC(=O)c1cc2nc(Nc3c(Cl)ccc(CNC(=O)C(C)(C)C)c3Cl)n(C)c2cc1OCC(F)F)C(F)(F)F (stereo not drawn) [Example 39] | 4 | < 1 |
| Cn1c(Nc2c(Cl)ccc(CNC(=O)C(C)(C)C)c2Cl)nc2cc(C(=O)NCc3ncccc3C(F)(F)F)c(OCC(F)F)cc21 [Example 42] | 4 | < 1 |
| Cn1c(Nc2c(Cl)ccc(CNC(=O)C(C)(C)C)c2Cl)nc2cc(C(=O)NCC3CCC3)c(OCC(F)F)cc21 [Example 46] | 3 | 1 |
| Cn1c(Nc2c(Cl)ccc(CNC(=O)C(C)(C)C)c2Cl)nc2cc(C(=O)NCCC(F)(F)F)c(OCC(F)F)cc21 [Example 48] | 3 | 1 |
| COCC1(CNC(=O)c2cc3nc(Nc4c(Cl)ccc(CNC(=O)C(C)(C)C)c4Cl)n(C)c3cc2OCC(F)F)CCCC1 [Example 49] | 4 | 1 |
| Cn1c(Nc2c(Cl)ccc(CNC(=O)C(C)(C)C)c2Cl)nc2cc(C(=O)NCCC3CC3)c(OCC(F)F)cc21 [Example 51] | 3 | < 1 |
| Cn1c(Nc2c(Cl)ccc(CNC(=O)C(C)(C)C)c2Cl)nc2cc(C(=O)NCC3CCCCC3)c(OCC(F)F)cc21 [Example 52] | 4 | < 1 |
